Experimental data from publication PMC6467890, “A semi-synthetic neolignan derivative from dihydrodieugenol B selectively affects the bioenergetic system of Leishmania infantum and inhibits cell division” (Scientific Reports, 2019).
Read-outs that look alike come from different tables or passages of the source.

Columns and labels:
[1] = system: L. (L.) infantum promastigotes; assay: Promastigote viability, MTT colorimetric method; assay type: cell-based, Leishmania (L.) infantum
Description: Promastigotes (1 × 10^6 parasites/well) in 96-well plates were incubated with the four compounds (150 to 1.2 μM) for 96 h at 24 °C. The parasite viability was determined using the MTT colorimetric method. Miltefosine was used as standard, with untreated cells as a negative control. A parallel promastigote activity assay was performed for 2 h with compound 2 (200 to 1.56 μM) for mechanism of action studies. After this period of incubation with compound 2, the parasites were washed twice with M-199 medium and the parasite viability was determined using the MTT colorimetric method for 4 h incubation at 24 °C.

[2] = system: intracellular amastigotes of L. (L.) infantum; assay: Intracellular amastigotes in peritoneal macrophages, light microscopy counting (infection index); assay type: cell-based, Leishmania (L.) infantum; settings: for IC50: intracellular amastigotes in peritoneal macrophages, 96 h, read-out: IC50 (µM) ± SD Amastigote
Description: Peritoneal macrophages (1 × 10^5 cell/well) in 16-well slide chambers (NUNC) were infected with amastigotes at a ratio of 10:1 (amastigotes/macrophage) and treated with compounds (60 to 10 µM) for 96 h. Stained slides (Giemsa) were counted using light microscopy and IC50 determined by the infection index. Miltefosine was used as standard and untreated cells as a negative control.

[3] = Mammalian cytotoxicity, MTT colorimetric method; assay type: cell-based, murine; settings: mouse, NCTC clone 929 fibroblast cells, up to 200 μM, read-out: CC50 (µM) ± SD NCTC
Description: (§1) Fibroblast NCTC cells clone 929 (6 × 10^4 cells/well) in 96-well plates were incubated with the compounds up to 200 μM in a 5% CO2 humidified incubator at 37 °C. CC50 was determined by the MTT colorimetric method. The selectivity index was determined using the following equation: CC50 against NCTC cells/IC50 against amastigotes

[4] = system: L. (L.) infantum promastigotes; assay: Cell cycle analysis, propidium iodide, flow cytometry; assay type: cell-based, Leishmania (L.) infantum; settings: 24 h; compound 2 190 µM, miltefosine 25 μM
Description: Promastigotes (2 × 10^6 parasites/well) in mid-log phase were incubated with compound 2 (190 µM) in M-199 medium for 24 h at 24 °C. Parasites were washed and fixed in 70% ice-cold ethanol overnight at −20 °C. After a further wash with PBS 1x, the promastigotes were ressuspended in propidium iodide (10 µg/mL, Molecular Probes) and RNase A (20 µg/mL, Molecular Probes) for 30 min in the dark at room temperature. The fluorescence intensity was analyses using Attune NxT flow cytometer (Thermo Fisher Scientific) with excitation filter wavelengths of 488 nm and emission of 574 nm (BL-2)[47]. Maximum change in the cell cycle was obtained in the presence of miltefosine (25 μM) and untreated parasites were used as negative control. Unstained parasites were used to set background fluorescence.

[5] = system: Fibroblast NCTC cells clone 929; assay: Mammalian cytotoxicity, MTT colorimetric method; assay type: cell-based, murine; settings: up to 200 μM, read-out: CC50 (µM) ± SD NCTC
Description: as §1

[6] = system: Trypanosoma cruzi parasites; set-up: method as in PMID 28864277; settings: cited from earlier work
[7] = system: Trypanosoma cruzi parasites; settings: cited from earlier work
[8] = system: L. (L.) infantum promastigotes; assay: Plasma membrane electric potential, DiSBAC2(3), flow cytometry; assay type: cell-based, Leishmania (L.) infantum
Description: Promastigotes (2 × 10^6 parasites/well) were treated with compound 2 (190 µM) for 1 and 2 h in HBSS + Glu at 24 °C. DiSBAC2(3) (Molecular Probes) were added (0.2 µM) and the parasites were incubated by 5 min[47]. The fluorescence was measure using Attune NxT flow cytometer (Thermo Fisher Scientific) with excitation and emission wavelengths of 488 and 574 nm (BL-2), respectively. Raloxifene (60 μM) was used as positive control and untreated parasites were used as negative control. Unstained parasites were used to set background fluorescence.

[9] = system: L. (L.) infantum promastigotes; assay type: cell-based, Leishmania (L.) infantum
Description: Promastigotes (2 × 10^6 parasites/well) were incubated in 96-well black polystyrene microplates with 1 µM of Sytox Green (Molecular Probes) in HANKS’ balanced salt solution (Sigma-Aldrich) supplemented with 10 mM D-Glucose (Sigma-Aldrich, HBSS + Glu) at 24 °C for 15 min in the dark[45]. Compound 2 (190 µM) was added and the fluorescence was measured every 20 min for up to 2 h, using a fluorimetric microplate reader (FilterMax F5 Multi-Mode, Molecular Devices) with excitation and emission wavelengths of 485 and 520 nm, respectively. Maximum permeabilization was obtained using 0.5% Triton X-100 and untreated parasites were used as negative control.

[10] = system: L. (L.) infantum promastigotes; assay: Mitochondrial membrane electric potential, JC-1, flow cytometry; assay type: cell-based, Leishmania (L.) infantum; settings: 190 µM, 1 and 2 h, compared to untreated parasites
Description: Promastigotes (2 × 10^6 parasites/well) were treated for 1 and 2 h with compound 2 (190 µM) in HBSS + Glu at 24 °C. JC-1 dye (Molecular Probes) was added at a final concentration of 10 μM. The parasites were incubated in the dark for 20 min and washed to eliminate the non-internalized dye. The fluorescence was measure using Attune NxT flow cytometer (Thermo Fisher Scientific) with excitation filter wavelengths of 488 nm and emission of 530 (BL-1) and 574 nm (BL-2). The mitochondrial membrane potential was determined using BL-2/BL-1 ratio[49]. Maximum depolarization was obtained in the presence of CCCP (100 μM) and untreated parasites were used as negative control. Unstained parasites were used to set background fluorescence.

[11] = system: L. (L.) infantum promastigotes; assay: ATP levels, bioluminescence assay; assay type: cell-based, Leishmania (L.) infantum; settings: 190 µM, 1 and 2 h, compared to untreated parasites
Description: Promastigotes (2 × 10^6 parasites/well) were treated with compound 2 (190 µM) in HBSS + Glu for 1 and 2 h at 24 °C. Untreated parasites and treated with CCCP (25 µM) were included as negative and positive controls, respectively. The promastigotes were lysed using 0.5% Triton X-100 and mixed with a standard reaction buffer (ATP Determination Kit, Molecular Probes) containing DTT (1 mM), luciferin (0.5 mM) and firefly luciferase (1.25 µg/mL)[50]. Luminescence intensity was measured using a luminometer (FilterMax F5 Multi-Mode, Molecular Devices) and the amount of ATP was calculated from an ATP standard curve.

[12] = system: L. (L.) infantum promastigotes; assay: Intracellular calcium levels, Fura-2 AM; assay type: cell-based, Leishmania (L.) infantum; settings: 190 µM, 5, 20, 60 and 120 min
Description: Promastigotes (2 × 10^6 parasites/well) were pretreated with 5 µM of Fura-2 AM (Molecular Probes) in PBS 1x, for 40 min at 24 °C in the dark. The parasites were washed and treated with compound 2 (190 µM). The fluorescence was measured at 5, 20, 60 and 120 min, using a fluorimetric microplate reader (FilterMax F5 Multi-Mode, Molecular Devices) with excitation and emission wavelengths of 360 and 500 nm, respectively. Maximum levels of calcium were obtained using 0.5% Triton X-100 and untreated parasites were used as negative control.

[13] = system: L. (L.) infantum promastigotes; assay: Ultrastructural analysis by transmission electron microscopy; assay type: cell-based, Leishmania (L.) infantum; set-up: dose or concentration left out as unconfirmed; settings: (figure legend), 4 and 6 h
Description: […] Then, the parasites were washed, fixed in 2.5% glutaraldehyde in 0.1 M sodium cacodylate buffer (pH 7.3), postfixed in 1% osmium tetroxide. The parasites were dehydrated with acetone series and embedded in Epon resin. Ultrathin sections were stained with uranyl acetate and lead citrate. The material was analyzed under transmission electron microscopy (JEOL JEM-1011). Untreated parasites were used as negative control.

[14] = system: bone marrow-derived macrophages, uninfected and infected with L. (L.) infantum; assay: Cytokine level quantification, CBA Mouse Inflammation Kit, flow cytometry; assay type: cell-based, BALB/c mice; settings: 48 h
Description: Bone marrow-derived macrophages (5 × 10^5 cells/well) in 24-well plates were infected with amastigotes at a ratio of 10:1 (amastigotes/macrophage) and kept at 37 °C in a 5% CO2 humidified incubator. Cell were treated with compound 2 (60 to 7.5 µM) for 48 h and the supernatant was collected and cytokine quantification was achieved using the CBA Mouse Inflammation Kit (BD Biosciences) according to the manufacturer’s instructions. The fluorescence was measured using BD LSRFortessa flow cytometer (BD Biosciences) and the data analysis was performed using the software FCAP Array (v.3). LPS (50 μg/mL) was used as positive control and untreated parasites were used as negative control.

Leishmania = settings: cited from earlier work
L. (L.) amazonensis = system: L. (L.) amazonensis; set-up: method as in PMID 20064628; settings: cited from earlier work
[15] = 96 h at 24 °C, MTT, read-out: IC50 (µM) ± SD Promastigote

CCCCCCCCCCCCCCCCOP(=O)([O-])OCC[N+](C)(C)C [Miltefosine, reference compound]
IC50 ([1]; Leishmania infantum, 96 h at 24 °C, MTT, read-out: IC50 (µM) ± SD Promastigote): 5.1 ± 0.6 µM | IC50 ([2]; Leishmania infantum, Peritoneal macrophage): 6.5 ± 3 µM | SI (Selectivity Index) ([2]; ratio between CC50 in NCTC cells and IC50 in intracellular amastigotes): 18.4 | CC50 [3]: 120 ± 4.2 µM | Proportion of promastigotes in different stages of cell cycle (% ± SD) G0/G1 [4]: 36.4 ± 1.3 % | Proportion of promastigotes in different stages of cell cycle (% ± SD) M/G2 [4]: 31.4 ± 0.5 % | Proportion of promastigotes in different stages of cell cycle (% ± SD) S [4]: 12.3 ± 0.1 % | Proportion of promastigotes in different stages of cell cycle (% ± SD) Sub G0 [4]: 10.1 ± 0.2 %

1-Propyl-3-(1′-propyl-3′-methoxyphenoxy)-4,5-dimethoxybenzene [Compound 3]
IC50 [1, 15]: 29.6 ± 2.3 µM | IC50 [2]: 21.7 ± 1.9 µM | CC50 [5]: 57.7 ± 1.1 µM

C=CCc1ccc(Oc2cc([C@@H](O)C=C)cc(OC)c2OC)c(OC)c1 [1-[(7S)-hydroxy-8-propenyl]-3-[3′-methoxy-1′-(8′-propenyl)-phenoxy]-4,5-methoxybenzene]
depolarization of the mitochondrial membrane [6]: induce depolarization of the mitochondrial membrane | plasma membrane permeabilization [7]: plasma membrane permeabilization was verified

O=C(c1ccc(OCCN2CCCCC2)cc1)c1c(-c2ccc(O)cc2)sc2cc(O)ccc12 [Raloxifene, reference compound]
plasma membrane electric potential (ΔΨp), DiSBAC2(3) fluorescence ([8]; positive control, 60 μM): caused increased levels of fluorescence

1-Propyl-3-(1′-propyl-3′-methoxyphenoxy)-5-methoxy-4-benzoyloxybenzene [Compound 2]
IC50 [1, 15]: 105 ± 9.4 µM | IC50 ([1]; after 2 h of incubation, used for mechanism of action assays, read-out: second IC50 value against promastigotes): 190 µM | amastigotes eliminated ([2]; at the highest tested concentration): 100% | IC50 [2]: 6.1 ± 1.2 µM | CC50 [5]: > 200 µM | plasma membrane permeability (Sytox Green fluorescence) [9]: No changes in the fluorescence levels were observed | plasma membrane electric potential (ΔΨp), DiSBAC2(3) fluorescence ([8]; 190 µM, 1 and 2 h, compared with untreated parasites): induced a significant (p < 0.0001) depolarization of the potential | mitochondrial membrane electric potential (ΔΨm), JC-1 BL-2/BL-1 ratio [10]: induced a significant (p < 0.0001) depolarization of the mitochondrial membrane potential | ATP concentration [11]: dose-dependent decrease of ATP concentration | cytosolic Ca2+ levels (Fura-2 AM) [12]: induced a fast up-regulation of calcium levels, in a time-dependent manner | Proportion of promastigotes in different stages of cell cycle (% ± SD) G0/G1 [4]: 52.3 ± 1.1 % | Proportion of promastigotes in different stages of cell cycle (% ± SD) M/G2 [4]: 26.4 ± 0.1 % | Proportion of promastigotes in different stages of cell cycle (% ± SD) S [4]: 13.7 ± 0.7 % | Proportion of promastigotes in different stages of cell cycle (% ± SD) Sub G0 [4]: 3.0 ± 0.2 % | ultrastructural alterations (TEM) [13]: intense swelling of the mitochondria with severe loss of cristae and matrix and concentric membranous structures inside this organelle | MCP-1 levels ([14]; 60 μM, both macrophage groups): decrease this chemokine in both macrophage groups | TNF production ([14]; infected macrophages at 30 and 15 μM, uninfected at 60 and 30 μM): reduced the TNF production

C/C=C/c1cc(OC)c2c(c1)[C@H](C)[C@@H](c1ccc(O)c(OC)c1)O2 [licarin A]
anti-Leishmania effect and NO upregulation (Leishmania): anti-Leishmania effect without NO upregulation

eupomatenoid-5
depolarization of the mitochondrial membrane (L. (L.) amazonensis): induce depolarization of the mitochondrial membrane

C=CCc1ccc(Oc2cc(CC=C)cc(OC)c2O)c(OC)c1 [dehydrodieugenol B]
plasma membrane permeabilization [7]: plasma membrane permeabilization was verified
